Source: ChEMBL document CHEMBL5226292, “Nonpungent N-AVAM Capsaicin Analogues and Cancer Therapy” (J Med Chem, 2021)
Converted amounts (≈) assume the structure as drawn.

Columns and labels:
PPC-1 = assay: Antiproliferative activity in human PPC-1 cells assessed as cell growth inhibition; type: functional, cell-based
DMS-114 = assay: Antiproliferative activity in human DMS-114 cells assessed as cell growth inhibition by MTT assay; type: functional, cell-based
T47D = assay: Antiproliferative activity in human T47D cells assessed as cell growth inhibition by MTT assay; type: functional, cell-based
TSU = assay: Antiproliferative activity in human TSU cells assessed as cell growth inhibition; type: functional, cell-based
[1] = Induction of apoptosis in human PBMC cells; type: functional
MCF7 = assay: Antiproliferative activity in human MCF7 cells assessed as cell growth inhibition by MTT assay; type: functional, cell-based
EFM-19 = assay: Antiproliferative activity in human EFM-19 cells assessed as cell growth inhibition by MTT assay; type: functional, cell-based
[2] = Antiproliferative activity in mouse WEHI-3 cells assessed as cell growth inhibition; type: functional, cell-based
[3] = Antiproliferative activity in human Cervical carcinoma cell assessed as cell growth inhibition; type: functional, cell-based
J774 = assay: Antiproliferative activity in mouse J774 cells assessed as cell growth inhibition; type: functional, cell-based
[4] = Cytotoxicity against human Bone marrow cell assessed as cell growth inhibition; type: toxicity, cell-based; conditions: bone marrow cells
P388 = assay: Antiproliferative activity in mouse P388 cells assessed as cell growth inhibition by MTT assay; type: functional, cell-based
Ca-Ski = assay: Antiproliferative activity in human Ca-Ski cells assessed as cell growth inhibition; type: functional, cell-based
C6 = assay: Antiproliferative activity against rat C6 cells assessed as inhibition of cell growth at 10 uM relative to control; type: functional; set-up: scale not given: the % may be the effect or the level left
[5] = Drug concentration in Sprague-Dawley rat hepatocytes measured after 30 mins relative to control; type: ADME, cell-based, Hepatocyte; conditions: 0.5 h
[6] = AUC in sc dosed mouse; type: ADME, organism-based; set-up: route sc; conditions: in vivo
[7] = AUC in po dosed mouse; type: ADME, organism-based; set-up: route po; conditions: in vivo
[8] = Drug concentration in rat enterocytes measured after 30 to 60 mins relative to control

`CCCCC/C=C\C/C=C\C/C=C\C/C=C\CCCC(=O)NCc1ccc(O)c(OC)c1` showed an IC50 (PPC-1) of 1000 nM, an IC50 (DMS-114) of 15 µM and an IC50 (T47D) of 350 nM. The IC50 (TSU) was 100 nM, the Activity [1] was 60% and the IC50 (MCF7) was 400 nM. For the same molecule, the IC50 (EFM-19) was 550 nM.
For `CCCCCCCCCCCCCCCC(=O)NCc1ccc(O)c(OC)c1`, the IC50 (T47D) was 1600 nM, the IC50 (MCF7) was 2200 nM and the IC50 (EFM-19) was 1000 nM.
In the case of `CC/C=C\C/C=C\C/C=C\CCCCCCCC(=O)NCc1ccc(O)c(OC)c1`, the IC50 (DMS-114) is reported as 15 µM.
In the case of `CCCCC/C=C\C/C=C\CCCCCCCC(=O)NCc1ccc(O)c(OC)c1`, the IC50 (DMS-114) is reported as 43 µM.
`CCCCCC[C@H](O)C/C=C\CCCCCCCC(=O)NCc1ccc(O)c(OC)c1` showed an IC50 [2] of 3 µg/mL (≈ 6.92 µM), an IC50 [3] of 149 µg/mL (≈ 344 µM) and an IC50 (J774) of 8 µg/mL (≈ 18.4 µM). For the same molecule, the IC50 [4] was 40 µg/mL (≈ 92.2 µM) and the IC50 (P388) was 9 µg/mL (≈ 20.8 µM).
For `CCCCCC[C@@H](C/C=C\CCCCCCCC(=O)NCc1ccc(O)c(OC)c1)OC(=O)Cc1ccccc1`, the IC50 [2] was 31 µg/mL (≈ 56.2 µM), the IC50 [3] was 74 µg/mL (≈ 134 µM) and the IC50 (J774) was 10 µg/mL (≈ 18.1 µM). It also gave an IC50 (Ca-Ski) of 122 µg/mL (≈ 221 µM), an IC50 [4] of 73 µg/mL (≈ 132 µM) and an IC50 (P388) of 49 µg/mL (≈ 88.8 µM).
With `COc1cc(CNC(=O)CCCC/C=C/C(C)C)ccc1O` [CAPSAICIN] the Activity (C6) was 20%, the IC50 (T47D) was 100000 nM and the IC50 (MCF7) was 100000 nM.
In the case of `CCCCCCCC/C=C\CCCCCCCC(=O)NCc1ccc(O)c(OC)c1` [OLVANIL], the Drug uptake [5] is reported as 4%, the AUC [6] is reported as 8 µg·h/g and the Activity (C6) is reported as 95%. The IC50 (DMS-114) was over 50 µM, the IC50 (T47D) was 750 nM and the AUC [7] was 0.1 µg·h/g. It also gave an Activity [1] of 20.5%, an IC50 (MCF7) of 1000 nM and an IC50 (EFM-19) of 700 nM. For the same molecule, the Drug uptake [8] was 1%.
